19 compounds from patent US20120245137A1 (Zalicus Pharmaceuticals Ltd., priority 2009, published 2012) can be followed below.

What all share (format): cell-based
Assay [1] addresses human α1G T-type channels (Homo sapiens, UniProt O43497). As to the kind of experiment: T-type calcium channel block, whole cell patch clamp, α1G. To be noted: HEK cells stably expressing human α1G; mainly non-inactivated protocol; values above 10,000 nM represented as 10000. Put shortly: (§1)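 Whole-cell voltage clamp on stably transfected HEK 293 lines carrying human α1H or α1G. Two voltage protocols used: non-inactivated pre-pulse for resting block, inactivated for voltage-dependent block; test agents perfused locally in external solution (0.1-0.01% DMSO) following ~10 min rest.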
(In general: Patch clamp records ionic current or voltage across a cell membrane.)

Assay [2] concerns the target human α1H T-type channels (Homo sapiens, UniProt O95180). Description: T-type calcium channel block, whole cell patch clamp, α1H. To be noted: HEK cells stably expressing human α1H; mainly non-inactivated protocol; values above 10,000 nM represented as 10000. Put shortly: as §1
The target of assay [3] is N-type calcium channel subunits (α1B, α2δ, and β3a) (Homo sapiens, UniProt Q00975). As to the kind of experiment: Block of Cav2.2 channel, whole cell voltage clamp, manual and PatchXpress. To be noted: Table 5; table follows Assay Example 3 (whole cell voltage clamp / PatchXpress); assay not given. Put shortly:
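Percent block taken as current amplitude ratio with versus without compound, applied in rising doses; IC50 fitted where one cell received multiple doses. Protocol: 50 ms pulses to +20 mV at 0.067 Hz from […] or −90 mV holding; P/n leak subtraction, no junction-potential correction; manual and PatchXpress recordings.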

Some results are limits rather than exact numbers.

N-type calcium channel subunits (α1B, α2δ, and β3a), sequence (Q00975 whole entry): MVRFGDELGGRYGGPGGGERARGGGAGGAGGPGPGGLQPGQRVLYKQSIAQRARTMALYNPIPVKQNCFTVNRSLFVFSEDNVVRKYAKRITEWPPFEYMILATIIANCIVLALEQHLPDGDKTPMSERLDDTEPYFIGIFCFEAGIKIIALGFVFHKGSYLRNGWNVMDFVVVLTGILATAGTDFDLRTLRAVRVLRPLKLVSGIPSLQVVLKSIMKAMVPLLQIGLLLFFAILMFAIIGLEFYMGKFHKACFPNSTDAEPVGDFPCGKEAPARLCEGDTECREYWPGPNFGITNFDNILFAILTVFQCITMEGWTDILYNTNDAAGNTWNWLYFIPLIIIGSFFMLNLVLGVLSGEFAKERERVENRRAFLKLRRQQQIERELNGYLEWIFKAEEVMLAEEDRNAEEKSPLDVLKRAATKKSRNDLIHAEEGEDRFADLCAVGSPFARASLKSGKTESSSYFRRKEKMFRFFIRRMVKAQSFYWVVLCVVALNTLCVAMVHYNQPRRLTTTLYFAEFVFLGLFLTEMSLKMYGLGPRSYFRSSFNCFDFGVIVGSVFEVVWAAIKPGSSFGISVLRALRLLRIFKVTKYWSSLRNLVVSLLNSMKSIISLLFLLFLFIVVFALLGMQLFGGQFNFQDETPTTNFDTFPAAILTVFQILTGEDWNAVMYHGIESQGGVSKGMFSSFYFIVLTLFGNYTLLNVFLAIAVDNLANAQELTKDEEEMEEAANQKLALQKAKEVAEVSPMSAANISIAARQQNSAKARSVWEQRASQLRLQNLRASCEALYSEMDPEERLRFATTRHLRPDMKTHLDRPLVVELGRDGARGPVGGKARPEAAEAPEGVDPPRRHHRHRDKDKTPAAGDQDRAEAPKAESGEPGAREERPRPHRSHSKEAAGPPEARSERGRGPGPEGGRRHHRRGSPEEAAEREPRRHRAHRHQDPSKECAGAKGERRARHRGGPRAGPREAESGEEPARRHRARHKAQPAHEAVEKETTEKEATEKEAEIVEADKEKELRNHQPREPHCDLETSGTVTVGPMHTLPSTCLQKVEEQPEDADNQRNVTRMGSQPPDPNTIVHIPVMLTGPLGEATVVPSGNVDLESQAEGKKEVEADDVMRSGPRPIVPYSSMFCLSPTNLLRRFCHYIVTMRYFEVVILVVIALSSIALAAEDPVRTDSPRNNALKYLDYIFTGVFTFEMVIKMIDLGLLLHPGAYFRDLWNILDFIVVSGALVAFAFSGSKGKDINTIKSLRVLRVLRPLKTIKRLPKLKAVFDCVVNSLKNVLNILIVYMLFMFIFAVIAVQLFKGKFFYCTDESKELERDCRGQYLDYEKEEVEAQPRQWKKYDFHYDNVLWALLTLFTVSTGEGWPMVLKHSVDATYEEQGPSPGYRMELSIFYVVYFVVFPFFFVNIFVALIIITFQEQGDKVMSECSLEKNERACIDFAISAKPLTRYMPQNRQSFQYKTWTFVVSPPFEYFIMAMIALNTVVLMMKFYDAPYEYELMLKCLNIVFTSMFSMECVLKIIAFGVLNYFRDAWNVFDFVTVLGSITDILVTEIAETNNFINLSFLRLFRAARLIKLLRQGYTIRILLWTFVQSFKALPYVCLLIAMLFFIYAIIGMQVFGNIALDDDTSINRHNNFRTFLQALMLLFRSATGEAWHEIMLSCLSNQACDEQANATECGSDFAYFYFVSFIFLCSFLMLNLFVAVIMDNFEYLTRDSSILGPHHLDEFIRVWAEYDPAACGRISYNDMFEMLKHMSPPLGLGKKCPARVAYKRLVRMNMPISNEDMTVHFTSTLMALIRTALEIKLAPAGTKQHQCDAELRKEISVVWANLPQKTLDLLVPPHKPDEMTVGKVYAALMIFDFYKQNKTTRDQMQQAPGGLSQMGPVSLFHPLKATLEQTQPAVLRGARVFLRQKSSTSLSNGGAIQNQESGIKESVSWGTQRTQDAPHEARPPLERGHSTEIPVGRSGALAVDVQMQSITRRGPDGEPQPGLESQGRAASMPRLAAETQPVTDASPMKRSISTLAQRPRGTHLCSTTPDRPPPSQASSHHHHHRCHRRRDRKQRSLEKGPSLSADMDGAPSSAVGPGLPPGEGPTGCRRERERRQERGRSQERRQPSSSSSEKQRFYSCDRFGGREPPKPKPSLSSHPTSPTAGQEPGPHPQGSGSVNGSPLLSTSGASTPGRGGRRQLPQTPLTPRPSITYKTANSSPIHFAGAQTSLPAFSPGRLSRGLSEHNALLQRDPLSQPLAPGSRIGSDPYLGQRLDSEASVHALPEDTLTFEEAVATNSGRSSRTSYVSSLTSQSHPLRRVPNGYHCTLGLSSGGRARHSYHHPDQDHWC
N-type calcium channel subunits (α1B, α2δ, and β3a), sequence (P54289 25-1103 partner): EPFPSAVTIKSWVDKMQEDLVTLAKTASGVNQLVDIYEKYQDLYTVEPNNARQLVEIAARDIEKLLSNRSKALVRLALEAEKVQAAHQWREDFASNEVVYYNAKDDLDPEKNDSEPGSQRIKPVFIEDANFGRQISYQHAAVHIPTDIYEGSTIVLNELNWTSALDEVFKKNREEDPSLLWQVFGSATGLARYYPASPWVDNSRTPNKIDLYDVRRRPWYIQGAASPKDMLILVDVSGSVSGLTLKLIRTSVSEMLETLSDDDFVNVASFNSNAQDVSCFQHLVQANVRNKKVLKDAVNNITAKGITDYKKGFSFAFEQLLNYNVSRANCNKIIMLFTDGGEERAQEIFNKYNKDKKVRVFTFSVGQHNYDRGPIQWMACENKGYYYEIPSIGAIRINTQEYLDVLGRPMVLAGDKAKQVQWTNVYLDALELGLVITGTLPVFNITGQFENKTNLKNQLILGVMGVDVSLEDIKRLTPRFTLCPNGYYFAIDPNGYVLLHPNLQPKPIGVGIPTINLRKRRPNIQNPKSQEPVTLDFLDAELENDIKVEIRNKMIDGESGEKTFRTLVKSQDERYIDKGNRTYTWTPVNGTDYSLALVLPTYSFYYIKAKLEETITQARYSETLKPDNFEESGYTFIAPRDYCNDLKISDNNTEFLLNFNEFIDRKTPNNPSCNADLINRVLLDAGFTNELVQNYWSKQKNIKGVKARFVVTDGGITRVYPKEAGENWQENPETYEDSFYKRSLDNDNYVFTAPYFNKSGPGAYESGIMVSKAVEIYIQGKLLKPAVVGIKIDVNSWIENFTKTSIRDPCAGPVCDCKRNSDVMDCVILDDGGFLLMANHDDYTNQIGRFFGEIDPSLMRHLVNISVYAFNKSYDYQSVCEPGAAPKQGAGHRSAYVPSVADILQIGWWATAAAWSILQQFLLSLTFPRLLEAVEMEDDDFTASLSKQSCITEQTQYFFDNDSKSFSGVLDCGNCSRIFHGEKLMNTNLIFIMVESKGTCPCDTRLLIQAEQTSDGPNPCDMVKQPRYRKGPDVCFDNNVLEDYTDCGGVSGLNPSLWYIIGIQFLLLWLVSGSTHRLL
N-type calcium channel subunits (α1B, α2δ, and β3a), sequence (P54284 whole entry partner): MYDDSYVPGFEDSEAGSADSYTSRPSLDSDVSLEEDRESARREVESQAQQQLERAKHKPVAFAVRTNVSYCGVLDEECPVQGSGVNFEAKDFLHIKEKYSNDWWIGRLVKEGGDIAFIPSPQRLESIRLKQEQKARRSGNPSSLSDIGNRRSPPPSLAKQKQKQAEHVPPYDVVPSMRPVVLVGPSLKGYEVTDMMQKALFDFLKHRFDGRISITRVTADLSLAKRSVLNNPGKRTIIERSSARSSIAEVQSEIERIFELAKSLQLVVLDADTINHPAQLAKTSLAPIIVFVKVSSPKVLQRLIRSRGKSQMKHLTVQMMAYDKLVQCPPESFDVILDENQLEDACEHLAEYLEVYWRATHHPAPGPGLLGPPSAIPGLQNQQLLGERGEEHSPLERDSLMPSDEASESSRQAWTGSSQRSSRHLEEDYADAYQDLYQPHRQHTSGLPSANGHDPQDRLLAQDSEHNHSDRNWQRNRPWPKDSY

By IC50 is commonly meant the concentration needed to halve the response being measured. In the case of `CC1(S(=O)(=O)c2cccc(C(F)(F)F)c2)CCC(NC(=O)CNC2CCCCC2)CC1` (stereo not drawn) [Compound 17, 2-(cyclohexylamino)-N-(4-methyl-4-(3-(trifluoromethyl)phenylsulfonyl)cyclohexyl)acetamide], the IC50 stood at 2330 nM in assay [1], 1420 nM in assay [2] and 260 nM in assay [3].
In the same order, the values of “4-chloro-2-methoxy-N-((1S,4S)-4- ((3- (trifluoromethyl)phenylsulfonyl) methyl)cyclohexyl)benzamide [Compound 140]” are 1100 nM, 700 nM and 700 nM.
In the same order, the values of `O=S(=O)(N[C@H]1CC[C@@](F)(S(=O)(=O)c2cccc(C(F)(F)F)c2)CC1)c1ccc(OC(F)(F)F)cc1` [Compound 302, N-((1S,4S)-4-fluoro-4-(3-(trifluoromethyl)phenylsultonyl)cyclohexyl)-4-(trifluoromethoxy) benzenesulfonamide] are 970 nM, 850 nM and 400 nM.
In the same order, the values of `O=C(N[C@H]1CC[C@@](F)(S(=O)(=O)c2cccc(OC(F)(F)F)c2)CC1)c1cncc(C(F)(F)F)c1` [Compound 252, N-((1S,4S)-4-fluoro-4-(3-(trifluoromethoxy)phenylsulfonyl)cyclohexyl)-5-(trifluoromethyl)nicotinamide] are 450 nM, 670 nM and 350 nM.
Consider `O=C(N[C@H]1CC[C@H](S(=O)(=O)c2cccc(C(F)(F)F)c2)CC1)c1cc(F)cc(C(F)(F)F)c1` [Compound 65, 3-fluoro-5-(trifluoromethyl)-N-((1R,4R)-4-(3-(trifluoromethyl)phenylsulfonyl)cyclohexyl)benzamide], for which the IC50 in assay [1] is greater than 10000 nM; in assay [2] it was greater than 10000 nM; in assay [3] it was 550 nM.
Take `CN(C(=O)c1ncc(C(F)(F)F)cc1S(C)(=O)=O)[C@H]1CC[C@@](F)(S(=O)(=O)c2cc(F)cc(C(F)(F)F)c2)CC1` [Compound 337, N-((1S,4S)-4-fluoro-4-(3-fluoro-5-(trifluoromethyl)phenylsulfonyl)cyclohexyl)-N-methyl-3-(methylsulfonyl)-5-(trifluoromethyl)picolinarnide]: the IC50 in assay [1] is greater than 10000 nM; in assay [2], 8660 nM; in assay [3], 910 nM.
In the same order, the values of `O=C(Nc1cc(C(F)(F)F)ccn1)[C@H]1C[C@H](S(=O)(=O)c2cccc(C(F)(F)F)c2)C1` [Compound 409, (1R,3R)-3-(3-(trifluoromethyl)phenylsulfonyl)-N-(4-(trifluoromethyl)pyridin-2-yl)cyclobutanecarboxamide] are 2650 nM, 3620 nM and 1690 nM.
In the same order, the values of `O=C(NC[C@H]1C[C@@H](S(=O)(=O)c2cccc(C(F)(F)F)c2)C1)c1cn2cc(C(F)(F)F)ccc2n1` [Compound 384, 6-(trifluoromethyl)-N-(((1S,3S)-3-(3-(trifluoromethyl)phenylsulfonyl)cyclobutyl)methyl)imidazo[l,2-a]pyridine-2-carboxamide] are greater than 10000 nM, 4740 nM and 960 nM.
In the same order, the values of `O=C(N[C@H]1CC[C@H](S(=O)(=O)c2cccc(C(F)(F)F)c2)CC1)c1ccc(Cl)c(C(F)(F)F)c1` [Compound 125, 4-chloro-3-(trifluoromethyl)-N-((1R,4R)-4-(3-(trifluoromethyl)phenylsulfonyl)cyclohexyl)benzamide] are 2910 nM, 2970 nM and 900 nM.
Regarding `O=C(N[C@H]1CC[C@@H](S(=O)(=O)c2cccc(C(F)(F)F)c2)CC1)c1cc(C(F)(F)F)ccn1` [Compound 42, 4-(trifluoromethyl)-N-((1S,4S)-4-(3-(trifluoromethyl)phenylsulfonyl)cyclohexyl)picolinamide], the IC50 amounted to 1510 nM in assay [1], 2860 nM in assay [2] and 480 nM in assay [3].
In the same order, the values of `O=C(N[C@H]1C[C@H](CS(=O)(=O)c2cccc(C(F)(F)F)c2)C1)c1ccc(C(F)(F)F)cn1` [Compound 347, 5-(trifluoromethyl)-N-((1R,3R)-3-((3-(trifluoromethyl)phenylsulfonyl)methyl)cyclobutyl)picolinamide] are 2370 nM, 260 nM and 1120 nM.
In the same order, the values of `O=C(N[C@H]1CC[C@](F)(S(=O)(=O)c2cccc(C(F)(F)F)c2)CC1)c1cc(F)cc(Cl)c1` [Compound 81, 3-chloro-5-fluoro-N-((1R,4R)-4-fluoro-4-(3-(trifluoromethyl)phenylsulfonyl)cyclohexyl)benzamide] are 380 nM, 220 nM and 410 nM.
In the same order, the values of `O=C(N[C@H]1CC[C@@H](S(=O)(=O)c2cc(F)cc(C(F)(F)F)c2)CC1)c1ccc(F)c(C(F)(F)F)c1` [Compound 319, 4-fluoro-N-((1S,4S)-4-(3-fluoro-5-(trifluoromethyl)phenylsulfonyl)cyclohexyl)-3-(trifluoromethyl)benzamide] are 4820 nM, 3430 nM and 260 nM.
With `O=C(Nc1cccc(C(F)(F)F)n1)[C@H]1C[C@H](S(=O)(=O)c2cccc(C(F)(F)F)c2)C1` [Compound 411, (1R,3R)-3-(3-(trifluoromethyl)phenylsulfonyl)-N-(6-(trifluoromethyl)pyridin-2-yl)cyclobutanecarboxamide], the IC50 in assay [1] is greater than 10000 nM; in assay [2], 2430 nM; in assay [3], 1020 nM.
In the same order, the values of `O=C(NC[C@H]1C[C@H](S(=O)(=O)c2cccc(C(F)(F)F)c2)C1)c1cc(F)cc(Cl)c1` [Compound 370, 3-chloro-5-fluoro-N-(((1R,3R)-3-(3-(trifluoromethyl)phenylsulfonyl)cyclobutyl)methyl)benzamide] are 680 nM, 640 nM and 290 nM.
In the same order, the values of `CN(C(=O)CNC1CCC(S(=O)(=O)c2cccc(C(F)(F)F)c2)CC1)C(C)(C)C` (stereo not drawn) [Compound 23, N-tert-butyl-N-methyl-2-(4-(3-(trifluoromethyl)phenylsulfonyl)cyclohexylamino)acetamide] are 2790 nM, 1190 nM and 240 nM.
Consider `O=C(N[C@H]1CC[C@@](F)(S(=O)(=O)c2cccc(C(F)(F)F)c2)CC1)C1CCC(F)(F)CC1` [Compound 305, 4,4-difluoro-N-((1S,4S)-4-fluoro-4-(3-(trifluoromethyl)phenylsulfonyl)cyclohexyl) cyclohexanecarboxamide], for which the IC50 was greater than 10000 nM in assay [1], greater than 10000 nM in assay [2] and 300 nM in assay [3].
As for `O=C(CN[C@H]1CC[C@@H](S(=O)(=O)c2cccc(C(F)(F)F)c2)CC1)Nc1ccccn1` [Compound 57, N-(pyridin-2-yl)-2-((1S,4S)-4-(3-(trifluoromethyl)phenylsulfonyl)cyclohexylamino)acetamide], the IC50 in assay [1] was 4940 nM; in assay [2] it was 1530 nM; in assay [3], 860 nM.
In the same order, the values of `CN(C(=O)CN[C@H]1CC[C@H](CS(=O)(=O)c2cccc(C(F)(F)F)c2)CC1)C(C)(C)C` [Compound 115, N-tert-butyl-N-methyl-2-((1R,4R)-4-((3-(trifluoromethyl)phenylsulfonyl)methyl)cyclohexylamino)acetamide] are greater than 10000 nM, greater than 10000 nM and 650 nM.
